# Results as given in US10766884B2 (Pfizer Inc., priority 2018, dated 2020).
# Counter-ions that a name gives are not always drawn.
# Experiments:
# CDK4/Cyclin D1 = CDK4/Cyclin D1 (Homo sapiens (Human), UniProt P11802); assay: CDK4/Cyclin D1 mobility shift assay; type: biochemical; details: activated CDK4/Cyclin D1, 3.5 mM ATP, Morrison fit; read-out: CDK4D1 Ki
# CDK6/Cyclin D3 = CDK6/Cyclin D3 (Homo sapiens (Human), UniProt Q00534); assay: CDK6/Cyclin D3 mobility shift assay; type: biochemical; details: activated CDK6/Cyclin D3, 3.5 mM ATP, Morrison fit; read-out: CDK6_D3 Ki
# Chain of CDK6/Cyclin D3 (Q00534 whole entry): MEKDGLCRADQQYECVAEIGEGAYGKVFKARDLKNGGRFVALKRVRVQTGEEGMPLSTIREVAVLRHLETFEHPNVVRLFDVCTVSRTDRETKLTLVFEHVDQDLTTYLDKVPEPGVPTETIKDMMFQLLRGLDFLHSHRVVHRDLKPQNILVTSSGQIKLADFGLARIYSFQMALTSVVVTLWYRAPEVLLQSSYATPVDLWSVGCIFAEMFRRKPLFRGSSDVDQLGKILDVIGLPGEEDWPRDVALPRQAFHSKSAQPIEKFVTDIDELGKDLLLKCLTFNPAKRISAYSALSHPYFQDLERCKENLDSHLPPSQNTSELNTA
# Chain of CDK6/Cyclin D3 (P30281 whole entry partner): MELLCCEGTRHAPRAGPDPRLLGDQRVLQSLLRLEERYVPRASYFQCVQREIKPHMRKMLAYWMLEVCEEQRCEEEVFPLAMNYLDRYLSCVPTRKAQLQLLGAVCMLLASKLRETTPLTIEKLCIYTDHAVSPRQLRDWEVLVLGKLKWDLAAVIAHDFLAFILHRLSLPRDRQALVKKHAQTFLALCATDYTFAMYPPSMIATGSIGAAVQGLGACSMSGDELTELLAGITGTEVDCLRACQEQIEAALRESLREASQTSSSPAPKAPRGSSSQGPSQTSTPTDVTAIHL
# CDK4 = CDK4 (Homo sapiens (Human), UniProt P11802); assay: Phospho-Serine 795 Rb ELISA assay in JEKO-1 cells; type: cell-based; details: overnight treatment, phospho-Rb S795, read-out: CDK4 pRB S795 ELISA JEKO-1 cells IC50
# Chain of CDK4 (P11802 2-303): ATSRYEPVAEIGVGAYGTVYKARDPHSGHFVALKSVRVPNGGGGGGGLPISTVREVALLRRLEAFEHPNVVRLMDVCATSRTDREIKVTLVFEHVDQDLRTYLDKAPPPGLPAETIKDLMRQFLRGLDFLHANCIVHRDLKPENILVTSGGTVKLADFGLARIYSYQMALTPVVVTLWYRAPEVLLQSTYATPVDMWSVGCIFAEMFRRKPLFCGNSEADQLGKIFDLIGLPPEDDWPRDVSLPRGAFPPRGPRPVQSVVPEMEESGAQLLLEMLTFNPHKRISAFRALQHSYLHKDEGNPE
# Chain of CDK4 (P24385 whole entry partner): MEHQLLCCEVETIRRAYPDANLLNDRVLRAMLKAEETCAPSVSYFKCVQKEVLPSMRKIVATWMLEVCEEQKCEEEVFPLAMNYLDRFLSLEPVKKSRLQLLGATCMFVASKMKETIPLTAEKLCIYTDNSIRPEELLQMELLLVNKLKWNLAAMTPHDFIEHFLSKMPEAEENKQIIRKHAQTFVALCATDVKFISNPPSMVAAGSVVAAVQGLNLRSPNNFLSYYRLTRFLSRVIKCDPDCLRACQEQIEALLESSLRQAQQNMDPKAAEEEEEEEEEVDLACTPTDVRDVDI
# Method: (§1) JEKO-1 or MV4-11 cells were seeded at 15,000 or 20,000 cells per well, respectively, in 100 μL growth media and allowed to incubate at 37° C. with 5% CO2 overnight. The following day, compounds were serially diluted from a 10 mM top dose for an 11-point 3-fold dilution curve in DMSO. Compounds were intermediately diluted 1:200 into growth media prior to diluting 1:5 on cells for final concentration 10 μM to 0.1 nM in 0.1% DMSO on cells. JEKO-1 and MV4-11 cells were treated were treated overnight, at 37° C. with 5% CO2. Cells were lysed in 100 μL/well CST lysis buffer on ice and transferred to pre-coated and blocked anti-phospho-Ser795 Rb ELISA plates for overnight incubation at 4° C. Plates were washed to remove residual, unbound cellular proteins and total Rb detection antibody added for 90 minutes at 37° C. Following wash to remove unbound total Rb antibody, the HRP tagged antibody was allowed to bind for 30 minutes at 37° C. Following wash to remove unbound HRP antibody, Glo Substrate Reagent was added and incubated protected from light for 5 to 10 minutes. Plates were read in luminescence mode and IC50 values calculated.
# CDK6 = CDK6 (Homo sapiens (Human), UniProt Q00534); assay: Phospho-Serine 795 Rb ELISA assay in MV4-11 cells; type: cell-based; details: overnight treatment, phospho-Rb S795, read-out: CDK6 pRB S795 ELISA MV4-11 cells IC50
# Chain of CDK6 (Q00534 whole entry): as the sequence (Q00534 whole entry) above
# Chain of CDK6 (P30281 whole entry partner): as the sequence (P30281 whole entry partner) above
# Method: as §1
# Chain of CDK4/Cyclin D1 (P11802 whole entry): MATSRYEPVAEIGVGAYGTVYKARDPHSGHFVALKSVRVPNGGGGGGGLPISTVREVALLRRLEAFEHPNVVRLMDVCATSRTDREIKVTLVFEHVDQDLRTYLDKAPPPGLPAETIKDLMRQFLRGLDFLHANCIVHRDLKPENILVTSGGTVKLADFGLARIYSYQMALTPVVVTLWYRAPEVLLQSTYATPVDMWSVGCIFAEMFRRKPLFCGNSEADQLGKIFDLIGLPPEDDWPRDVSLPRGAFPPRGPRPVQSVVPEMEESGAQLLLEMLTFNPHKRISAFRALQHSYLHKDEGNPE
# Chain of CDK4/Cyclin D1 (P24385 whole entry partner): as the sequence (P24385 whole entry partner) above
Ki (CDK4/Cyclin D1),Ki (CDK6/Cyclin D3),IC50 (CDK4),IC50 (CDK6),SMILES
4.9 nM,114 nM,76.5 nM,408 nM,"CNCc1nc2c(F)cc(-c3nc(N[C@@H]4CCOC[C@H]4O)ncc3Cl)cc2n1C(C)C [Example A44, 1,5-anhydro-3-[(5-chloro-4-{4-fluoro-2-[(methylamino)methyl]-1-(propan-2-yl)-1H-benzimidazol-6-yl}pyrimidin-2-yl)amino]-2,3-dideoxy-D-threo-pentitol]"
0.5 nM,7.1 nM,23.5 nM,87 nM,"CC(C)n1c(C2CCO2)nc2c(F)cc(-c3nc(N[C@@H]4CCN(S(C)(=O)=O)C[C@H]4O)ncc3Cl)cc21 (single isomer, unassigned) [Example A31]"
4.5 nM,93.3 nM,249 nM,1470 nM,"CC(C)n1c(CNC2COC2)nc2c(F)cc(-c3nc(N[C@@H]4CCOC[C@H]4O)ncc3Cl)cc21 [Example H05, 1,5-anhydro-3-({5-chloro-4-[4-fluoro-2-{[(oxetan-3-yl)amino]methyl}-1-(propan-2-yl)-1H-benzimidazol-6-yl]pyrimidin-2-yl}amino)-2,3-dideoxy-D-threo-pentitol]"
0.3 nM,4.9 nM,61.1 nM,126 nM,"CC(C)(C)n1cnc2ccc(-c3nc(N[C@@H]4CCN(S(C)(=O)=O)C[C@H]4O)ncc3F)cc21 [Example A77, (3R,4R)-4-{[4-(1-tert-butyl-1H-benzimidazol-6-yl)-5-fluoropyrimidin-2-yl]amino}-1-(methanesulfonyl)piperidin-3-ol]"
0.3 nM,5 nM,33.2 nM,103 nM,"COCc1nc2c(F)cc(-c3nc(N[C@@H]4CCN(S(C)(=O)=O)C[C@H]4O)ncc3Cl)cc2n1C(C)C [Example A75, (3R,4R)-4-({5-chloro-4-[4-fluoro-2-(methoxymethyl)-1-(propan-2-yl)-1H-benzimidazol-6-yl]pyrimidin-2-yl}amino)-1-(methanesulfonyl)piperidin-3-ol]"
0.1 nM,2.5 nM,88.6 nM,163 nM,Cc1nc2c(F)cc(-c3nc(N[C@@H]4CCN(S(C)(=O)=O)C[C@H]4O)ncc3F)cc2n1C(C)C [Example A02]
1.1 nM,35.6 nM,79.6 nM,343 nM,"CC(C)n1c(CN2CC(F)C2)nc2c(F)cc(-c3nc(N[C@@H]4CCOC[C@H]4O)ncc3Cl)cc21 [Example H06, 1,5-anhydro-3-[(5-chloro-4-{4-fluoro-2-[(3-fluoroazetidin-1-yl)methyl]-1-(propan-2-yl)-1H-benzimidazol-6-yl}pyrimidin-2-yl)amino]-2,3-dideoxy-D-threo-pentitol]"
0.3 nM,3.5 nM,85.5 nM,346 nM,"Cc1nc2c(F)cc(-c3nc(N[C@@H]4CCN(S(C)(=O)=O)C[C@H]4O)ncc3Cl)cc2n1CC(C)N (stereo partly drawn) [Example A40, (3R,4R)-4-({4-[1-(2-aminopropyl)-4-fluoro-2-methyl-1H-benzimidazol-6-yl]-5-chloropyrimidin-2-yl}amino)-1-(methanesulfonyl)piperidin-3-ol]"
2.7 nM,60.1 nM,202 nM,973 nM,"Cc1nc2c(F)cc(-c3nc(N[C@@H]4CCOC[C@H]4O)ncc3Cl)cc2n1C(C)(C)CN [Example A52, 3-({4-[1-(1-amino-2-methylpropan-2-yl)-4-fluoro-2-methyl-1H-benzimidazol-6-yl]-5-chloropyrimidin-2-yl}amino)-1,5-anhydro-2,3-dideoxy-D-threo-pentitol]"
0.5 nM,11.5 nM,108 nM,311 nM,"CCS(=O)(=O)N1CC[C@@H](Nc2ncc(Cl)c(-c3cc(F)c4nc(C)n(C5COC5)c4c3)n2)[C@H](O)C1 [Example F08, (3R,4R)-4-({5-chloro-4-[4-fluoro-2-methyl-1-(oxetan-3-yl)-1H-benzimidazol-6-yl]pyrimidin-2-yl}amino)-1-(ethanesulfonyl)piperidin-3-ol]"
3.2 nM,64.9 nM,198 nM,283 nM,"CC1CNCc2nc3c(F)cc(-c4nc(N[C@@H]5CCOC[C@H]5O)ncc4Cl)cc3n21 (single isomer, unassigned) [Example A55, 1,5-anhydro-3-{[5-chloro-4-(9-fluoro-4-methyl-1,2,3,4-tetrahydropyrazino[1,2-a]benzimidazol-7-yl)pyrimidin-2-yl]amino}-2,3-dideoxy-D-threo-pentitol]"
0.1 nM,1.7 nM,14.9 nM,25.7 nM,"CC(C)n1c(C(C)(C)O)nc2c(F)cc(-c3nc(N[C@@H]4CCN(S(C)(=O)=O)C[C@H]4O)ncc3Cl)cc21 [Example A91, (3R,4R)-4-({5-chloro-4-[4-fluoro-2-(2-hydroxypropan-2-yl)-1-(propan-2-yl)-1H-benzimidazol-6-yl]pyrimidin-2-yl}amino)-1-(methanesulfonyl)piperidin-3-ol]"
0.6 nM,10.4 nM,72.7 nM,195 nM,C[C@H]1COCc2nc3c(F)cc(-c4nc(N[C@@H]5CCN(S(C)(=O)=O)C[C@H]5O)ncc4Cl)cc3n21 [Example A10]
0.7 nM,22.1 nM,43.4 nM,295 nM,"CC(C)n1c(CNC2CC2)nc2c(F)cc(-c3nc(N[C@@H]4CCOC[C@H]4O)ncc3Cl)cc21 [Example H11, 1,5-anhydro-3-[(5-chloro-4-{2-[(cyclopropylamino)methyl]-4-fluoro-1-(propan-2-yl)-1H-benzimidazol-6-yl}pyrimidin-2-yl)amino]-2,3-dideoxy-D-threo-pentitol]"
4.5 nM,80.4 nM,7320 nM,10000 nM,"Cc1nc2c(F)cc(-c3nc(N[C@@H]4CCN(S(C)(=O)=O)C[C@H]4O)ncc3F)cc2n1C1CNC1 [Example A88, (3R,4R)-4-({4-[1-(azetidin-3-yl)-4-fluoro-2-methyl-1H-benzimidazol-6-yl]-5-fluoropyrimidin-2-yl}amino)-1-(methanesulfonyl)piperidin-3-ol]"
0.9 nM,12.8 nM,172 nM,628 nM,"CC(C)(C)n1cnc2c(F)cc(-c3cc(N[C@@H]4CCN(C(=O)C(F)(F)CN)C[C@H]4O)ncc3Cl)cc21 [Example F32, 3-amino-1-[(3R,4R)-4-{[4-(1-tert-butyl-4-fluoro-1H-benzimidazol-6-yl)-5-chloropyridin-2-yl]amino}-3-hydroxypiperidin-1-yl]-2,2-difluoropropan-1-one]"
3.3 nM,50.8 nM,225 nM,541 nM,Cc1nc2cc(F)c(-c3ccnc(N[C@@H]4CCN(S(C)(=O)=O)C[C@H]4O)n3)cc2n1C(C)C [Example A05]
1 nM,24.6 nM,383 nM,370 nM,"CC(N)c1nc2c(F)cc(-c3nc(N[C@@H]4CCN(S(C)(=O)=O)C[C@H]4O)ncc3Cl)cc2n1C(C)C (single isomer, unassigned) [Example A47]"
0.7 nM,14.3 nM,48.7 nM,235 nM,"CC(C)n1c(C(C)(C)O)nc2c(F)cc(-c3nc(N[C@@H]4CCOC[C@H]4O)ncc3F)cc21 [Example A68, 1,5-anhydro-2,3-dideoxy-3-({5-fluoro-4-[4-fluoro-2-(2-hydroxpropan-2-yl)-1-(propan-2-yl)-1H-benzimidazol-6-yl]pyrimidin-2-yl}amino)-D-threo-pentitol]"
1.4 nM,43 nM,48.3 nM,409 nM,"CC(C)n1c(CN2CCC2)nc2c(F)cc(-c3nc(N[C@@H]4CCOC[C@H]4O)ncc3Cl)cc21 [Example H07, 1,5-anhydro-3-[(4-{2-[(azetidin-1-yl)methyl]-4-fluoro-1-(propan-2-yl)-1H-benzimidazol-6-yl}-5-chloropyrimidin-2-yl)amino]-2,3-dideoxy-D-threo-pentitol]"
0.8 nM,38.2 nM,63.4 nM,221 nM,"CC(C)n1c(CN2C[C@@](C)(O)[C@@H]2C)nc2c(F)cc(-c3nc(N[C@@H]4CCOC[C@H]4O)ncc3Cl)cc21 [Example H04, 1,5-anhydro-3-({5-chloro-4-[4-fluoro-2-{[(2S,3R)-3-hydroxy-2,3-dimethylazetidin-1-yl]methyl}-1-(propan-2-yl)-1H-benzimidazol-6-yl]pyrimidin-2-yl}amino)-2,3-dideoxy-D-threo-pentitol]"
2.1 nM,25.8 nM,248 nM,478 nM,"CC(C)(C)n1cnc2c(F)cc(-c3nc(N[C@@H]4CCN(CCO)C[C@H]4O)ncc3Cl)cc21 [Example F05, (3R,4R)-4-{[4-(1-tert-butyl-4-fluoro-1H-benzimidazol-6-yl)-5-chloropyrimidin-2-yl]amino}-1-(2-hydroxyethyl)piperidin-3-ol formic acid salt]"
